According to patent publication US20100029784A1, “NAPHTHOQUINONE COMPOSITIONS WITH ANTI-AGING, ANTI-INFLAMMATORY AND SKIN EVEN-TONING PROPERTIES” (priority 2008, published 2010):

Test system: MelanoDerm in vitro skin model (MEL-300B melanoderms)
Assay: In vitro skin model test (MelanoDerm, MatTek), skin-lightening effect by digital image quantification
Type: cell-based
Conditions: for lightening / pixel density (untreated set at 1.00): 14 days, MEL-300B
Method: The skin-lightening effect was validated on the in vitro skin model, the MelanoDerm™ carried out by MatTek using MEL-300B melanoderms. This model is very similar in structure and function to the natural skin and has the cell types relevant in the epidermis including the melanocytes, which are responsible for the synthesis of the main pigment melanin. Further information can be found, for example, in http://www.mattek.com/pages/in_vitro_basics. The study was carried out over a period of 14 days at two concentrations of 2,3-dimethylnaphthalene-1,4-dione, 10 μM and 60 μM. 1% Kojic acid was the positive standard and untreated as negative control.
Digital image quantification was achieved by subtracting a standard background value from the pixel content of regions of identical size. The pixel content of untreated cells was set at 1.00. Treatment with topical 1% kojic acid as a positive control gave pixel density of 0.96, or 4% lightening. Treatment with 2,3-dimethylnaphthalene-1,4-dione gave pixel density of 0.66 or 34% lightening at a concentration of 10 μM and 0.38 or 62% lightening at a concentration of 60 μM.

[1] = topical 1% kojic acid, positive control

Structure (SMILES): CC1=C(C)C(=O)c2ccccc2C1=O [2,3-dimethylnaphthalene-1,4-dione]
- effectiveness relative to the kojic acid positive standard (concentration of 10 μM vs 1% kojic acid): about ten times as effective
- lightening (concentration of 10 μM): 34%
- pixel density (untreated set at 1.00) (concentration of 10 μM): 0.66
- effectiveness relative to the kojic acid positive standard (concentration of 60 μM vs 1% kojic acid): about fifteen times as effective
- lightening (concentration of 60 μM): 62%
- pixel density (untreated set at 1.00) (concentration of 60 μM): 0.38

Structure (SMILES): O=c1cc(CO)occ1O [kojic acid, Kojic acid, reference compound]
- lightening [1]: 4%
- pixel density (untreated set at 1.00) [1]: 0.96
